Consider two compounds from ChEMBL document CHEMBL1143016, “Scutiaquinones A and B, perylenequinones from the roots of Scutia myrtina with anthelmintic activity” (J Nat Prod, 2007).

One data set relates to Haemonchus contortus. Briefly: Anthelmintic activity against Haemonchus contortus assessed as reduction in L3 larval motility. The data set is classed as functional.
A further data set deals with Mus musculus. Briefly: Toxicity in Swiss-Webster mouse at 50 mg/kg, im. In kind it is organism-based. More on the design: dose 50 mg/kg, route intramuscular. Particulars: in vivo.
For data set [1], the system named is Heligmosomoides polygyrus. Briefly: Anthelmintic activity against Heligmosomoides polygyrus infected Swiss-Webster mouse assessed as reduction of worm counts at 30 mg/kg, im. On the set-up: dose 30 mg/kg. The data set is classed as functional, organism-based.
The test system of data set [2] is Heligmosomoides polygyrus. The experiment in a line: Anthelmintic activity against Heligmosomoides polygyrus infected Swiss-Webster mouse assessed as reduction of worm counts at 25 mg/kg, im. On the set-up: dose 25 mg/kg. In kind it is functional, organism-based.

In brackets after ≈: the same amount, converted by molar mass. Activity calls are given as the source filed them. The calls are words filed in the database; no cut-off is given here.

As for `Cc1cc2c3c4c(c(O)c5c(=O)c(C)cc(c6c7c(c(=O)c(c1O)c26)[C@@H](C)O[C@@H](C)C7)c53)[C@@H](C)O[C@@H](C)C4` [SCUTIAQUINONE B], the EC90 in the data set on Haemonchus contortus is 10.3 µg/mL (≈ 20.2 µM). The Activity result with Mus musculus is “Toxic”. The result in data set [1] was inactive.
On to `Cc1cc2c3cc(C)c(O)c4c(=O)c5c(c(c6c7c(c(=O)c(c1O)c26)[C@@H](C)O[C@@H](C)C7)c43)C[C@H](C)O[C@@H]5C` [SCUTIAQUINONE A], for which the result in data set [2] was inactive. Moreover, the EC90 in the data set with Haemonchus contortus turned out to be 9.3 µg/mL (≈ 18.2 µM).

For orientation: EC90 means the concentration needed for an effect of 90%.
